The text below walks through data of ChEMBL document CHEMBL3046873, “Synthesis of antihyperglycemic, -glucosidase inhibitory, and DPPH free radical scavenging furanochalcones” (Med Chem Res, 2012).

The term inhibition denotes the relative decrease from the control value, in per cent. A high value points to a response far below the control.

Calls of active or inactive are those of the source. No cut-off for these calls is given here.

For assay [1], the system named is Radical scavenging activity. Nature of the assay: Antioxidant activity assessed as DPPH free radical scavenging activity at 20 ug/ml after 30 min by spectrophotometric analysis. It counts as functional.
Assay [2] concerns the target Lysosomal alpha-glucosidase (Rattus norvegicus) (UniProt Q6P7A9). As to the kind of experiment: Inhibition of rat intestinal alpha-glucosidase using para-nitrophenyl-alpha-D-glucopyranoside as substrate at 25 ug/ml incubated for 5 min prior to substrate addition measured after 5 min by spectrophotometric analysis.
Assay [3] has as its system Radical scavenging activity. Nature of the assay: Antioxidant activity assessed as concentration required for 50% DPPH free radical scavenging activity after 30 min by spectrophotometric analysis. It counts as functional. (In general: The DPPH test is a chemical assay of radical scavenging.)
The test system of assay [4] is Rattus norvegicus. As to the kind of experiment: Antihyperglycemic activity in starch-induced post-parandial hyperglycemic Rattus norvegicus Wistar (rat) model assessed as decrease in plasma glucose level at 50 mg/kg, po administered via gastric intubation by glucose-oxidase test. Also on record: dose 50 mg/kg. Conditions: TDE = time-dependent effect. It counts as functional, organism-based.

The subject of assay [5] is Rattus norvegicus. Nature of the assay: Antihyperglycemic activity in starch-induced post-parandial hyperglycemic Rattus norvegicus Wistar (rat) model assessed as decrease in plasma AUC at 50 mg/kg, po administered via gastric intubation administered 15 min followed by starch challenge measured after 30 to 120 min by glucose-oxidase test. Further details: dose 50 mg/kg. It counts as functional, organism-based.

Assay [6] concerns Rattus norvegicus. As to the kind of experiment: Antihyperglycemic activity in starch-induced post-parandial hyperglycemic Rattus norvegicus Wistar (rat) model assessed as decrease in plasma glucose level at 10 mg/kg, po administered via gastric intubation by glucose-oxidase test. It counts as functional, organism-based. Also on record: dose 10 mg/kg. Conditions: TDE = time-dependent effect.

For assay [7], the system named is Rattus norvegicus. Nature of the assay: Antihyperglycemic activity in starch-induced post-parandial hyperglycemic Rattus norvegicus Wistar (rat) model assessed as decrease in plasma AUC at 10 mg/kg, po administered via gastric intubation administered 15 min followed by starch challenge measured after 30 to 120 min by glucose-oxidase test. Also on record: dose 10 mg/kg. It counts as functional, organism-based.

Sequence of Lysosomal alpha-glucosidase (Rattus norvegicus) (Q6P7A9 whole entry): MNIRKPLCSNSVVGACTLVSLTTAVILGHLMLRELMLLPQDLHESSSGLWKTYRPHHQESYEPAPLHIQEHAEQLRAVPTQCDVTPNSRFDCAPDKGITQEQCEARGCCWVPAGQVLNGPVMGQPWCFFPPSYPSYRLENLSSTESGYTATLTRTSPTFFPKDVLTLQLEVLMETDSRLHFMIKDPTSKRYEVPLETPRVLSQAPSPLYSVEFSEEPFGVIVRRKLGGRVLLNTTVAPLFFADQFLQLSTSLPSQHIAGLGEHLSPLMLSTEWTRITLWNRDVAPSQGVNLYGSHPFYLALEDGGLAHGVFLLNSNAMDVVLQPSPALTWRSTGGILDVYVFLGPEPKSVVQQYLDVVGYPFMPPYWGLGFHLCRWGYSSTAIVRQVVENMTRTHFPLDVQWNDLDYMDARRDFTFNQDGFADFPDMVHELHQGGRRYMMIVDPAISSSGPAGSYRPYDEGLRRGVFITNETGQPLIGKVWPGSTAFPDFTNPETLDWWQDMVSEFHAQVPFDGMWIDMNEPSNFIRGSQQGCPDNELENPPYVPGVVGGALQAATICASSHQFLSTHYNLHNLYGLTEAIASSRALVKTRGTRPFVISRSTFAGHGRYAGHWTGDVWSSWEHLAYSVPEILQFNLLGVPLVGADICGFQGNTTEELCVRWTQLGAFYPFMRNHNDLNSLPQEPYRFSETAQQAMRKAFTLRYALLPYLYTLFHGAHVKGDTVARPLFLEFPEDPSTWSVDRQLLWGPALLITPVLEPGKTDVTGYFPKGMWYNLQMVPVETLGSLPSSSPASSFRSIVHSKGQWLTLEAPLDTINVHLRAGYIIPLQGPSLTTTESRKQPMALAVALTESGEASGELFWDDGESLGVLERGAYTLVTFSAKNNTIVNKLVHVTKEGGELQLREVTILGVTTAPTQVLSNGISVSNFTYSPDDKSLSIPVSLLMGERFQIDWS

In the case of `COc1cc(/C=C/C(=O)c2cc3ccoc3cc2O)ccc1O`, in assay [1], the Activity was 42.1%. The compound further had an inhibition in assay [2] of 52.8%.

Turning to `COc1ccc(/C=C/C(=O)c2ccc3occc3c2O)cc1`, the inhibition in assay [2] worked out at 94.8%.

Turning to `O=C(/C=C/c1ccccc1)c1ccc2occc2c1O`, the Activity in assay [1] worked out at 7.57%. The compound further showed an inhibition in assay [2] of 20.8%.

Turning to `COc1ccc(/C=C/C(=O)c2cc3ccoc3cc2O)cc1OC`, in assay [1], the Activity was determined as 8.78%. This compound came in with an inhibition in assay [2] of 89.3%.

`O=C(/C=C/c1ccc(O)c(O)c1)c1cc2ccoc2cc1O`: the Activity in assay [3] was 26.2 µM; in assay [1] it was 69.8%. The same compound yielded an inhibition in assay [2] of 62.7%.

With `COc1ccc(/C=C/C(=O)c2ccc3occc3c2O)cc1OC`, the Activity result in assay [4] was “tde”. The compound also showed an inhibition in assay [2] of 89.5%. Besides, in assay [5], the result was Active.

For the compound `O=C(/C=C/c1ccc(O)cc1)c1ccc2occc2c1O`, the Activity was found to be 17.8 µM in assay [3] and 75.8% in assay [1]. The same compound showed an inhibition in assay [2] of 65.7%.

Regarding `O=C(/C=C/c1ccccc1)c1cc2ccoc2cc1O`, in assay [1], the Activity stood at 9.91%. The inhibition in assay [2] worked out at 67.6%.

With `C[C@H]1O[C@H](O[C@H]2[C@H](O)[C@@H](O)[C@@H](O[C@H]3[C@H](O)[C@@H](O)C(O)O[C@@H]3CO)O[C@@H]2CO)[C@H](O)[C@@H](O)[C@@H]1N[C@H]1C=C(CO)[C@@H](O)[C@H](O)[C@H]1O` (stereo not given in full), the Activity result in assay [6] is “tde”. In addition, the outcome in assay [7] was Active.

For `O=C(/C=C/c1ccc(O)c(O)c1)c1ccc2occc2c1O`, the results for the Activity in assay [3] and in assay [1] were 29.7 µM and 67.9%, respectively. The inhibition in assay [2] came out at 61.5%.

Take `COc1ccc(/C=C/C(=O)c2ccc3occc3c2O)c(OC)c1OC`: the Activity in assay [1] was determined as 7.3%. The same compound came in with an inhibition in assay [2] of 67.3%.

With `Cc1c(C)c2c(c(C)c1O)CCC(C)(C(=O)O)O2` (stereo not given), the Activity in assay [3] came to 4.8 µM; in assay [1], 99.5%.

In the case of `COc1cc(OC)c(OC)cc1/C=C/C(=O)c1cc2ccoc2cc1O`, the Activity in assay [1] was 17.1%. For the same compound, the inhibition in assay [2] was determined as 68%.

Turning to `COc1cc(/C=C/C(=O)c2ccc3occc3c2O)ccc1O`, the Activity in assay [1] is 54.2%. This compound also had an inhibition in assay [2] of 45%.

As to `COc1ccc(/C=C/C(=O)c2cc3ccoc3cc2O)cc1`, the inhibition in assay [2] turned out to be 48.9%.

Regarding `O=C(/C=C/c1ccc(O)cc1)c1cc2ccoc2cc1O`, the Activity amounted to 12 µM in assay [3] and 73.2% in assay [1]. Besides, in assay [2], the inhibition came out at 8.77%.
